Experiments:
Type in all cases: in vivo
[1] = tested on: Matricaria inodora; assay: Herbicidal pre-emergence action (Part 2), 1280 g/ha; conditions: application rate 1280 g/ha, scored visually after about 3 weeks, Table D7
In short: (§1)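 Sow seeds in sandy loam, cover with soil. Apply compound (WP or EC, aqueous, 0.5% additive, 600 L/ha) onto covering soil. Grow in greenhouse about 3 weeks, then rate visually as % effect against untreated controls.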

[2] = tested on: Abutilon theophrasti; assay: as above; conditions: application rate 1280 g/ha, scored visually after about 3 weeks, Table D5
In short: as §1

[3] = tested on: Echinochloa crus-galli; assay: as above; conditions: application rate 1280 g/ha, scored visually after about 3 weeks, Table D1
In short: as §1

[4] = tested on: Stellaria media; assay: as above; conditions: application rate 1280 g/ha, scored visually after about 3 weeks, Table D8
In short: as §1

[5] = tested on: Poa annua; assay: as above; conditions: application rate 1280 g/ha, scored visually after about 3 weeks, Table D3
In short: as §1

[6] = tested on: Setaria viridis; assay: as above; conditions: application rate 1280 g/ha, scored visually after about 3 weeks, Table D4
In short: as §1

[7] = tested on: Lolium rigidum; assay: as above; conditions: application rate 1280 g/ha, scored visually after about 3 weeks, Table D2
In short: as §1

[8] = tested on: Amaranthus retroflexus; assay: as above; conditions: application rate 1280 g/ha, scored visually after about 3 weeks, Table D6
In short: as §1

[9] = tested on: Matricaria inodora; assay: Herbicidal post-emergence action (Part 2), 1280 g/ha; conditions: application rate 1280 g/ha, rated visually after about 3 weeks, Table C6
In short: (§2)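 Sow weeds in sandy loam pots; grow in greenhouse 2 to 3 weeks to one-leaf stage; spray formulated compound with 0.5% additive at 600 liters per hectare; hold about 3 weeks; rate activity visually against untreated controls on a 0 to 100% scale.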

[10] = tested on: Abutilon theophrasti; assay: as above; conditions: application rate 1280 g/ha, rated visually after about 3 weeks, Table C4
In short: as §2

[11] = tested on: Echinochloa crus-galli; assay: as above; conditions: post-emergence (Part 2), application rate 1280 g/ha, rated visually after about 3 weeks vs untreated controls
In short: as §2

[12] = tested on: Stellaria media; assay: as above; conditions: application rate 1280 g/ha, rated visually after about 3 weeks, Table C7
In short: as §2

[13] = tested on: Poa annua; assay: as above; conditions: application rate 1280 g/ha, rated visually after about 3 weeks, Table C2
In short: as §2

[14] = tested on: Setaria viridis; assay: as above; conditions: application rate 1280 g/ha, rated visually after about 3 weeks, Table C3
In short: as §2

[15] = tested on: Amaranthus retroflexus; assay: as above; conditions: application rate 1280 g/ha, rated visually after about 3 weeks, Table C5
In short: as §2

Structure (SMILES) | Matricaria inodora [1] | Abutilon theophrasti [2] | Echinochloa crus-galli [3] | Stellaria media [4] | Poa Annua [5] | Setaria viridis [6] | Lolium rigidum [7] | Amaranthus retroflexus [8] | Matricaria inodora [9] | Abutilon theophrasti [10] | Echinochloa crus-galli [11] | Stellaria media [12] | Poa Annua [13] | Setaria viridis [14] | Amaranthus retroflexus [15]
CC(C)C(=O)OC1CCN(C)C(=O)N1c1cc(C(C)(C)C)on1 (stereo not shown) [I.5-162] | 100% | 100% | 100% | 100% | 100% | 100% | 90% | 100% | 100% | 100% | 100% | 100% | 100% | 100% | 100%
CN1CCC(O)N(c2cc(C(C)(C)C)n(C)n2)C1=O (stereo not shown) [I.1-315] | 100% | 100% | – | 100% | 90% | 100% | – | 100% | 90% | 100% | 100% | 100% | 100% | 100% | 100%

Reference: patent publication US20200390100A1, “SUBSTITUTED N-HETEROCYCLYL- AND N-HETEROARYL-TETRAHYDROPYRIMIDINONES AND THE SALTS THEREOF, AND THE USE OF SAME AS HERBICIDAL ACTIVE SUBSTANCES” (Bayer Aktiengesellschaft, priority 2017, published 2020)
